What was measured:
Assay type in all cases: cell-based, mouse
Details in all cases: dexamethasone 1 μM
C2C12 myotubes = experiment: Diameter (thickness) of C2C12 myotubes, dexamethasone-induced muscle atrophy
Procedure: C2C12 mouse myoblasts acquired from the Korean Collection for Type Cultures of the Korea Research Institute of Bioscience and Biotechnology were induced to divide for a total of 6 times (3 times×2 days). After the division was completed sufficiently, the C2C12 cells were seeded onto a 12-well plate and then divided for 2 days. As a division medium, HyClone™ DMEM/high glucose supplemented with 10% FBS (fetal bovine serum) and 1% penicillin was used.
When each well of the 12-well plate reached 90% confluency, the cells were treated with a differentiation medium (HyClone™ DMEM/high glucose supplemented with 2% HS (horse serum) and 1% penicillin). The differentiation medium was replaced every 2 days, and the treatment was performed for 6 days. Then, the differentiation-induced C2C12 myotubes were treated with HyClone™ supplemented with 1% penicillin for 24 hours and then subjected to the following experiment.
Dexamethasone induces muscle atrophy by inhibiting muscle synthesis and inducing protein degradation. […]
After treating the control groups and test groups for 48 hours in Example 2-2, the cells were imaged using the automated cell imaging system JuLi™ Stage and the thickness of the imaged cells was measured using the cell processing program Image J, with 50 cells per group.

atrogin-1/MAFbx = experiment: Western blotting of atrogin-1/MAFbx in C2C12 myotubes
From the text: (§1) Dexamethasone induces muscle atrophy by inhibiting muscle synthesis and inducing protein degradation. The effect of preventing and improving muscle atrophy of the lycii radicis cortex extract was investigated by inducing muscle atrophy by treating the differentiation-induced C2C12 cells of Example 2-1 with dexamethasone and then treating the muscle atrophy-induced cells with the lycii radicis cortex extract. Detailed experimental conditions are as follows.
(§2) (1) Control: The differentiated C2C12 cells were treated only with DMEM/high glucose supplemented with 1% penicillin for 48 hours.
(§3) (2) Negative control: The C2C12 cells were treated with DMEM/high glucose supplemented with 1% penicillin and 1 μM dexamethasone for 48 hours.
(§4) (3) Control+lycii radicis cortex extract: The cells were treated with 30 μg/mL of the lycii radicis cortex extract for 48 hours under the same condition as the control of (1).
(§5) (4) Negative control+lycii radicis cortex extract: The cells were treated with 30 μg/mL of the lycii radicis cortex extract for 48 hours under the same condition as the negative control of (2). […]

MuRF-1 = experiment: Western blotting of MuRF-1 in C2C12 myotubes
From the text: as §1, §2, §3, §4, §5

Question: Which results are given for `C[C@@H]1C[C@H]2[C@@H]3CCC4=CC(=O)C=C[C@]4(C)[C@@]3(F)[C@@H](O)C[C@]2(C)[C@@]1(O)C(=O)CO` [dexamethasone]?
Answer: Average thickness (μm) of 50 cells (C2C12 myotubes; 48 hours, C2C12 myotubes): 7.5933 μm; decrease in thickness as compared to the control group (C2C12 myotubes; p<0.005): 30.54%; increase of activity of atrogin-1/MAFbx as compared to the control group (atrogin-1/MAFbx): 3.404 fold; Atrogin-1/MAFbx vs. GAPDH (atrogin-1/MAFbx; 48 hours, Control = 100): 340.3945; increase of activity of MuRF-1 as compared to the control group (MuRF-1): 3.513 fold; MuRF-1 vs. GAPDH (MuRF-1; 48 hours, Control = 100): 351.2904

— patent publication US20200306333A1, “COMPOSITION FOR PREVENTING OR TREATING MUSCLE ATROPHY COMPRISING LYCII RADICIS CORTEX” (Industry-University Cooperation Foundation Hanyang …, priority 2019, published 2020)
